The IC50 is the concentration needed to halve the response being measured.

The results in this text go back to ChEMBL document CHEMBL1142112, “Antiproliferative xanthones of Terminalia calcicola from the Madagascar rain forest” (J Nat Prod, 2007).

Each structure is given as a SMILES string.

The test system of this assay is A2780. Nature of the assay: Antiproliferative activity against human A2780 cells. Type of assay: cell-based.

`CC(C)=CCc1c(O)c(O)cc2oc3c4c(cc(O)c3c(=O)c12)OC(C)(C)C=C4` had an IC50 of 8.1 µM. Take `CC(C)=CCc1c(O)ccc2oc3c(O)c4c(c(O)c3c(=O)c12)C=CC(C)(C)O4` [TERMICALCICOLANONE A]: the IC50 was found to be 40.6 µM.
